Source: US7195788B2, “Pesticidal compositions from prunus” (Premier Botanicals, Ltd., priority 2001, dated 2007)
Several values for one entry are separate records, joined by “and”; a condition that tells them apart may be missing. Equal entries are not always repeated.

Columns and labels:
Cytospora chrysosperma = assay: In vitro mycelia growth of Cytospora chrysosperma on potato dextrose agar containing the test material; format: cell-based; conditions: 23° C.
Method: The effectiveness of Prunus compositions was compared to the effectiveness of synthetic benzaldehyde in stopping or restricting the growth of the Cytospora fungus on potato dextrose agar. The volatile compounds of a Prunus virginiana hydrodistillate were concentrated by counter-flow flash evaporation (i.e. collected from vessel 122 as shown in FIG. 2) to provide a concentrated extract that was further processed by distillation to remove hydrocyanic acid. The resulting extract was analyzed and found to contain 1.2% trans-2-hexenal, 98.5% benzaldehyde, and traces of other compounds originally in the hydrodistillate. This extract was reconstituted in distilled water to provide a solution containing approximately 10,000 ppm of Prunus volatiles. This stock solution was used to prepare a series of agar solutions containing between 0 and 10,000 ppm Prunus volatiles. The Prunus material was blended into the agar after autoclaving and prior to pouring the agar into Petri plates. […] All plates were inoculated with a 5-mm potato dextrose agar plug from a two-week-old culture of C. chrysosperma.

Uncinula necator = assay: Powdery mildew development on 'Pinot Noir' grape leaves after spray treatment; format: in vivo; conditions: for Powdery mildew disease rating on grape leaves, per repetition: scale 1 = no symptoms, 5 = 100% infected, Prunus 1 crude, Prunus 2 and SB at 1000 ppm, repetitions 1-3
Method: Prunus compositions (including crude Prunus virginiana hydrodistillate, collected in vessel 112 of FIG. 2, having the analysis of the first entry of Table 1) were tested on grape plants (Pinot Noir) infected with powdery mildew. The experiment was set up in a complete randomized block design with three repetition, four treatments each, with three observations per treatment. Treatments were as follows: Prunus 1: crude hydrodistillate from Prunus biomass, Prunus 2: benzaldehyde separated from the hydrodistillate at 1,000 ppm, SB-synthetic benzaldehyde, and control-distilled water.
Treatments were applied to infected leaves in early August and in early September. Three adjacent leaves on a vine were sprayed with each treatment and replicated on three different vines (plants). The solutions were applied with a mist sprayer until run off. The first disease reading was obtained in early September, one month after the first treatment application. The second disease reading was obtained in early October, about one month after the second treatment application.
Disease ratings were based on a scale of 1 to 5, with 1 indicating no symptoms and 5 indicating 100-percent infected. The results are summarized in Table 5, in which each datum is a mean value of the three observations for each treatment made on the two dates disease readings were obtained. […] The crude hydrodistillate composition contained all of the volatile chemicals identified above in Example 1. The increased fungicidal action of the crude hydrodistillate indicated synergistic action of the Prunus volatiles relative to purified or synthetic benzaldehyde.

Sphaerotheca pannosa = assay: Powdery mildew development on rose leaves after spray treatment; format: in vivo; conditions: for Powdery mildew disease rating on rose leaves, per repetition: scale 1 = no symptoms, 5 = 100% infection, Prunus 1 crude, Prunus 2 and SB at 1000 ppm, repetitions 1-3
Method: Prunus compositions (including crude Prunus virginiana hydrodistillate, collected in vessel 112 of FIG. 2, having the SPME determined composition of the first entry in Table 1) were tested on diseased plants and were evaluated as a fungicide for controlling Rose powdery mildew. The experiment was set up in a complete randomized block design with three repetitions and four treatments. Treatments were as follows: Prunus 1: crude hydrodistillate from Prunus biomass, Prunus 2: benzaldehyde separated from the crude hydrodistillate at 1,000 ppm, SB-synthetic benzaldehyde, and control-distilled water.
Treatments were applied to infected leaves twice (one week apart) in late July, and once in late August. All leaves were covered with mildew mycelia at the time of the first treatment. One compound leaf was treated with each treatment. Leaves from different stems were treated for each of the three repetition. The treatments were applied with a mist sprayer until run off. Disease development was rated on a scale of 1 to 5, where 1 indicated no symptoms and 5 indicated 100-percent infected. The first disease rating was obtained at the time of the late August treatment, followed by a second disease rating in early September. […] The crude distillate from the Prunus biomass was effective in eliminating or inhibiting the growth of the fungus on the rose leaves. […] The crude hydrodistillate containing all of the volatile compounds identified in Example 1 appeared to act synergistically, relative to purified or synthetic benzaldehyde, to control the rose mildew fungus.

For O=Cc1ccccc1 [SB, benzaldehyde], the “Mycelial Growth (radial)” value (Cytospora chrysosperma; 25 ppm in PDA, 1 day after treatment) was 0.0 cm, the “Mycelial Growth (radial)” value (Cytospora chrysosperma; 25 ppm in PDA, 2 days after treatment) was 1.2 cm and the “Mycelial Growth (radial)” value (Cytospora chrysosperma; 25 ppm in PDA, 3 days after treatment) was 2.8 cm. The “Mycelial Growth (radial)” value (Cytospora chrysosperma; 25 ppm in PDA, 4 days after treatment) was 3.8 cm, the “Mycelial Growth (radial)” value (Cytospora chrysosperma; 25 ppm in PDA, 5 days after treatment) was 4.1 cm and the “Mycelial Growth (radial)” value (Cytospora chrysosperma; 25 ppm in PDA, 6 days after treatment) was 4.1 cm. For the same molecule, the “Mycelial Growth (radial)” value (Cytospora chrysosperma; 25 ppm in PDA, 7 days after treatment) was 4.1 cm, the “Mycelial Growth (radial)” value (Cytospora chrysosperma; 25 ppm in PDA, 14 days after treatment) was 4.1 cm and the “Mycelial Growth (radial)” value (Cytospora chrysosperma; 50 ppm in PDA, 1 day after treatment) was 0.0 cm. The “Mycelial Growth (radial)” value (Cytospora chrysosperma; 50 ppm in PDA, 2 days after treatment) was 1.1 cm, the “Mycelial Growth (radial)” value (Cytospora chrysosperma; 50 ppm in PDA, 3 days after treatment) was 2.6 cm and the “Mycelial Growth (radial)” value (Cytospora chrysosperma; 50 ppm in PDA, 4 days after treatment) was 3.1 cm. The “Mycelial Growth (radial)” value (Cytospora chrysosperma; 50 ppm in PDA, 5 days after treatment) was 4.0 cm, the “Mycelial Growth (radial)” value (Cytospora chrysosperma; 50 ppm in PDA, 6 days after treatment) was 4.1 cm and the “Mycelial Growth (radial)” value (Cytospora chrysosperma; 50 ppm in PDA, 7 days after treatment) was 4.1 cm. For the same molecule, the “Mycelial Growth (radial)” value (Cytospora chrysosperma; 50 ppm in PDA, 14 days after treatment) was 4.1 cm, the “Mycelial Growth (radial)” value (Cytospora chrysosperma; 100 ppm in PDA, 1 day after treatment) was 0.0 cm and the “Mycelial Growth (radial)” value (Cytospora chrysosperma; 100 ppm in PDA, 2 days after treatment) was 1.2 cm. The “Mycelial Growth (radial)” value (Cytospora chrysosperma; 100 ppm in PDA, 3 days after treatment) was 2.7 cm, the “Mycelial Growth (radial)” value (Cytospora chrysosperma; 100 ppm in PDA, 4 days after treatment) was 3.5 cm and the “Mycelial Growth (radial)” value (Cytospora chrysosperma; 100 ppm in PDA, 5 days after treatment) was 4.1 cm. For the same molecule, the “Mycelial Growth (radial)” value (Cytospora chrysosperma; 100 ppm in PDA, 6 days after treatment) was 4.1 cm, the “Mycelial Growth (radial)” value (Cytospora chrysosperma; 100 ppm in PDA, 7 days after treatment) was 4.1 cm and the “Mycelial Growth (radial)” value (Cytospora chrysosperma; 100 ppm in PDA, 14 days after treatment) was 4.1 cm. For the same molecule, the “Mycelial Growth (radial)” value (Cytospora chrysosperma; 500 ppm in PDA, 1 day after treatment) was 0.0 cm, the “Mycelial Growth (radial)” value (Cytospora chrysosperma; 500 ppm in PDA, 2 days after treatment) was 0.9 cm and the “Mycelial Growth (radial)” value (Cytospora chrysosperma; 500 ppm in PDA, 3 days after treatment) was 2.3 cm. For the same molecule, the “Mycelial Growth (radial)” value (Cytospora chrysosperma; 500 ppm in PDA, 4 days after treatment) was 3.1 cm, the “Mycelial Growth (radial)” value (Cytospora chrysosperma; 500 ppm in PDA, 5 days after treatment) was 4.0 cm and the “Mycelial Growth (radial)” value (Cytospora chrysosperma; 500 ppm in PDA, 6 days after treatment) was 4.0 cm. For the same molecule, the “Mycelial Growth (radial)” value (Cytospora chrysosperma; 500 ppm in PDA, 7 days after treatment) was 4.1 cm, the “Mycelial Growth (radial)” value (Cytospora chrysosperma; 500 ppm in PDA, 14 days after treatment) was 4.1 cm and the “Mycelial Growth (radial)” value (Cytospora chrysosperma; 1,000 ppm in PDA, 1 day after treatment) was 0.0 cm. For the same molecule, the “Mycelial Growth (radial)” value (Cytospora chrysosperma; 1,000 ppm in PDA, 2 days after treatment) was 0.7 cm, the “Mycelial Growth (radial)” value (Cytospora chrysosperma; 1,000 ppm in PDA, 3 days after treatment) was 1.6 cm and the “Mycelial Growth (radial)” value (Cytospora chrysosperma; 1,000 ppm in PDA, 4 days after treatment) was 2.2 cm. For the same molecule, the “Mycelial Growth (radial)” value (Cytospora chrysosperma; 1,000 ppm in PDA, 5 days after treatment) was 3.3 cm, the “Mycelial Growth (radial)” value (Cytospora chrysosperma; 1,000 ppm in PDA, 6 days after treatment) was 4.0 cm and the “Mycelial Growth (radial)” value (Cytospora chrysosperma; 1,000 ppm in PDA, 7 days after treatment) was 4.1 cm. For the same molecule, the “Mycelial Growth (radial)” value (Cytospora chrysosperma; 1,000 ppm in PDA, 14 days after treatment) was 4.1 cm, the “Mycelial Growth (radial)” value (Cytospora chrysosperma; 5,000 ppm in PDA, 1 day after treatment) was 0.0 cm and the “Mycelial Growth (radial)” value (Cytospora chrysosperma; 5,000 ppm in PDA, 2 days after treatment) was 0.0 cm. The “Mycelial Growth (radial)” value (Cytospora chrysosperma; 5,000 ppm in PDA, 3 days after treatment) was 0.0 cm, the “Mycelial Growth (radial)” value (Cytospora chrysosperma; 5,000 ppm in PDA, 4 days after treatment) was 0.0 cm and the “Mycelial Growth (radial)” value (Cytospora chrysosperma; 5,000 ppm in PDA, 5 days after treatment) was 0.0 cm. For the same molecule, the “Mycelial Growth (radial)” value (Cytospora chrysosperma; 5,000 ppm in PDA, 6 days after treatment) was 0.1 cm, the “Mycelial Growth (radial)” value (Cytospora chrysosperma; 5,000 ppm in PDA, 7 days after treatment) was 0.3 cm and the “Mycelial Growth (radial)” value (Cytospora chrysosperma; 5,000 ppm in PDA, 14 days after treatment) was 0.0 cm. For the same molecule, the “Mycelial Growth (radial)” value (Cytospora chrysosperma; 10,000 ppm in PDA, 1 day after treatment) was 0.0 cm, the “Mycelial Growth (radial)” value (Cytospora chrysosperma; 10,000 ppm in PDA, 2 days after treatment) was 0.0 cm and the “Mycelial Growth (radial)” value (Cytospora chrysosperma; 10,000 ppm in PDA, 3 days after treatment) was 0.0 cm. For the same molecule, the “Mycelial Growth (radial)” value (Cytospora chrysosperma; 10,000 ppm in PDA, 4 days after treatment) was 0.0 cm, the “Mycelial Growth (radial)” value (Cytospora chrysosperma; 10,000 ppm in PDA, 5 days after treatment) was 0.0 cm and the “Mycelial Growth (radial)” value (Cytospora chrysosperma; 10,000 ppm in PDA, 6 days after treatment) was 0.0 cm. The “Mycelial Growth (radial)” value (Cytospora chrysosperma; 10,000 ppm in PDA, 7 days after treatment) was 0.0 cm, the “Mycelial Growth (radial)” value (Cytospora chrysosperma; 10,000 ppm in PDA, 14 days after treatment) was 0.0 cm and the “Powdery mildew disease rating on grape leaves, per repetition” value (Uncinula necator; reading 9/7, one month after first spray) was 2 and 1. The “Powdery mildew disease rating on grape leaves, per repetition” value (Uncinula necator; reading 10/5, about one month after second spray) was 3, the “Control of grape powdery mildew (in words)” value (Uncinula necator; spray on infected Pinot Noir leaves, up to second reading) was “reduced the spread of the mildew fungus, but did not control it” and the “Powdery mildew disease rating on rose leaves, per repetition” value (Sphaerotheca pannosa; reading 8/22) was 3 and 2. The “Powdery mildew disease rating on rose leaves, per repetition” value (Sphaerotheca pannosa; reading 9/4) was 3 and 2 and the “Control of rose powdery mildew (in words)” value (Sphaerotheca pannosa; spray on infected rose leaves) was “less effective in removing the fungus from the infected rose leaves”.
